The term IC50 denotes the concentration that inhibits the measured activity by half.

Consider 22 compounds from patent US12240838B2, “Inhibiting agents for Bruton's tyrosine kinase” (BIOGEN MA INC., priority 2019, dated 2025).

In assay [1] the target is T1, BTK (Homo sapiens (Human), UniProt Q06187). Briefly: In Vitro BTK Kinase Assay: BTK-POLYGAT-LS ASSAY. In kind it is biochemical. As to conditions: ATP 10 μM, polyGAT 100 nM, BTK 0.25 nM, 30 minutes. On the procedure:
The purpose of the BTK in vitro assay is to determine compound potency against BTK through the measurement of IC50. […] The BTK kinase reaction was done in a black 96 well plate (costar 3694). For a typical assay, a 24 μL aliquot of a ATP/peptide master mix (final concentration; ATP 10 μM, polyGAT 100 nM) in kinase buffer (10 mM Tris-HCl pH 7.5, 10 mM MgCl2, 200 μM […], 5 mM DTT, 0.01% Triton X-100, and 0.2 mg/ml casein) is added to each well. Next, […] of a 4-fold, 40× compound titration in 100% DMSO solvent is added, followed by adding 15 μL of BTK enzyme mix in 1× kinase buffer (with a final concentration of 0.25 nM). The assay is incubated for 30 minutes before being stopped with […] of a 50 mM EDTA solution. Aliquots (5 μL) of the kinase reaction are transferred to a low volume white 384 well plate (Coming 3674), and […] of a 2× detection buffer (Invitrogen PV3574, with 4 nM Tb-PY20 antibody, Invitrogen PV3552) is added. The plate is covered and incubated for 45 minutes at room temperature. Time resolved fluorescence (TRF) on Molecular Devices M5 (332 nm excitation; 488 nm emission; 518 nm fluorescein emission) is measured.

The target of assay [2] is T1, BTK. Nature of the assay: In Vitro PD Assay in Human Whole Blood (pBTK assay). The format is cell-based. Conditions: 37° C. for 30 min, 50% inhibition of ECL signal. The method, then:
Human heparinized venous blood was purchased from Bioreclamation, Inc. or SeraCare Life Sciences and shipped overnight. Whole blood was aliquoted into 96-well plate and “spiked” with serial dilutions of test compound in DMSO or with DMSO without drug. The final concentration of DMSO in all wells was 0.1%. The plate was incubated at 37° C. for 30 min. Lysis buffer containing protease and phosphatase inhibitors was added to the drug-containing samples and one of the DMSO-only samples (+PPi, high control), while lysis buffer containing protease inhibitors was added to the other DMSO-only samples (−PPi, low control). All of the lysed whole blood samples were subjected to the total BTK capture and phosphotyrosine detection method described in US20160311802, incorporated herein by reference.

The structures appear in SMILES notation.

T1 sequence (Q06187 whole entry): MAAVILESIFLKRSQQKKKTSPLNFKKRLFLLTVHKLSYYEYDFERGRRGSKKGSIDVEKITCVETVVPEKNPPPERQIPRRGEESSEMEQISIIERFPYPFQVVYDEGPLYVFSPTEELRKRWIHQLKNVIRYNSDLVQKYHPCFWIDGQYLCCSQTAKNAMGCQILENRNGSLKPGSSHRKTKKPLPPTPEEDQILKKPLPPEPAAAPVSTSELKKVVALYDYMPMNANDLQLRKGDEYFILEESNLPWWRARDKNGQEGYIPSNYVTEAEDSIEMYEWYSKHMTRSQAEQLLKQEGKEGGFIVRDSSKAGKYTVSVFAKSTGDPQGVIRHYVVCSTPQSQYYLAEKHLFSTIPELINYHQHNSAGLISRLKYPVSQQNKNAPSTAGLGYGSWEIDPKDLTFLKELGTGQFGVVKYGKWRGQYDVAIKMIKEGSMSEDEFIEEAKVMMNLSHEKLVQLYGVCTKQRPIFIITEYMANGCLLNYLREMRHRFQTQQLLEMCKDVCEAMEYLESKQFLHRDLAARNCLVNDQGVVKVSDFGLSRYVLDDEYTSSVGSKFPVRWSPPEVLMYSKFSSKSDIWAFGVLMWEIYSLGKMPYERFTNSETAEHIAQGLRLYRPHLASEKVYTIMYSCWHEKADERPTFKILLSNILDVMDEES

For `CC(C)(C)c1noc(C(=O)NC2CCCOc3cc(-c4ccnc(NC(=O)C5CC5)c4)ccc32)n1` (stereo not drawn) [Compound 55, 3-(tert-butyl)-N-(8-(2-(cyclopropanecarboxamido)pyridin-4-yl)-2,3,4,5-tetrahydrobenzo[b]oxepin-5-yl)-1,2,4-oxadiazole-5-carboxamide], the IC50 was at most 1 nM against BTK [1] and 500 to 10000 nM against BTK [2].
Take `CC(C)(C)c1noc(C(=O)NCc2ccc(-c3ccnc(NC(=O)C4CC4)c3)c(F)c2C2CC2)n1` [Compound 34, 3-(tert-butyl)-N-(4-(2-(cyclopropanecarboxamido)pyridin-4-yl)-2-cyclopropyl-3-fluorobenzyl)-1,2,4-oxadiazole-5-carboxamide]: the IC50 is at most 1 nM against BTK [1] and 500 to 10000 nM at BTK [2].
For `CC(C)(C)c1nc(C(=O)NCc2ccc(-c3ccnc(NC(=O)C4CC4)c3)c(F)c2Cl)no1` [Compound 14, 5-(tert-butyl)-N-(2-chloro-4-(2-(cyclopropanecarboxamido)pyridin-4-yl)-3-fluorobenzyl)-1,2,4-oxadiazole-3-carboxamide] the same measures were at most 1 nM and at most 100 nM.
`Cc1cc(-c2ccnc(NC(=O)C3CC3)c2)ccc1[C@@H](C)NC(=O)c1nc(C(C)(C)C)no1` [Compound 93, (R)-3-(tert-butyl)-N-(1-(4-(2-(cyclopropanecarboxamido)pyridin-4-yl)-2-methylphenyl)ethyl)-1,2,4-oxadiazole-5-carboxamide]: the IC50 is at most 1 nM at BTK [1] and 100 to 500 nM at BTK [2].
With `Cc1cc(-c2ccnc(NC(=O)[C@@H]3C[C@@H]3F)c2)ccc1CNC(=O)c1noc(C(C)(C)C)n1` (single isomer, unassigned) [Compound 3], the values for the IC50 against BTK [1] and at BTK [2] were at most 1 nM and at most 100 nM, respectively.
On BTK [1], `C[C@@H](NC(=O)c1noc(C(C)(C)C)n1)c1ccc(-c2ccnc(NC(=O)C3CC3)c2)c(F)c1Cl` [Compound 74, (R)-5-(tert-butyl)-N-(1-(2-chloro-4-(2-(cyclopropanecarboxamido)pyridin-4-yl)-3-fluorophenyl)ethyl)-1,2,4-oxadiazole-3-carboxamide] displayed an IC50 of at most 1 nM.
On the same count and under the same terms, in the case of `Cc1cc(-c2ccnc(NC(=O)C3CC3)c2)ccc1CNC(=O)c1nn(C(C)(C)C)cc1F` [Compound 28, 1-(tert-butyl)-N-(4-(2-(cyclopropanecarboxamido)pyridin-4-yl)-2-methylbenzyl)-4-fluoro-1H-pyrazole-3-carboxamide] it was at most 1 nM; in that of `Cc1cc(-c2ccnc(NC(=O)C3CC3)c2)ccc1CNC(=O)c1cn(C(C)(C)C)cn1` [Compound 95, 1-(tert-butyl)-N-(4-(2-(cyclopropanecarboxamido)pyridin-4-yl)-2-methylbenzyl)-1H-imidazole-4-carboxamide], 10 to 1000 nM.
`Cc1cc(-c2ccnc(NC(=O)C3CC3C(F)(F)F)c2)ccc1CNC(=O)c1noc(C(C)(C)C)n1` (stereo not drawn) [Compound 25, 5-(tert-butyl)-N-(2-methyl-4-(2-(2-(trifluoromethyl)cyclopropane-1-carboxamido)pyridin-4-yl)benzyl)-1,2,4-oxadiazole-3-carboxamide]: the IC50 against BTK [1] is 1 to 10 nM.
For `CC(C)(C)c1nc(C(=O)NCc2ccc(-c3ccnc(NC(=O)C4CC4)c3)c(F)c2C(F)(F)F)no1` [Compound 86, 5-(tert-butyl)-N-(4-(2-(cyclopropanecarboxamido)pyridin-4-yl)-3-fluoro-2-(trifluoromethyl)benzyl)-1,2,4-oxadiazole-3-carboxamide], the IC50 on BTK [1] is at most 1 nM.
The compound `Cc1cc(-c2ccnc(NC(=O)[C@H]3C[C@H]3F)c2)ccc1CNC(=O)c1noc(C(C)(C)C)n1` (single isomer, unassigned) [Compound 4] registered an IC50 against BTK [1] of at most 1 nM.
`CC(C)(C)c1nc(C(=O)NCc2ccc(-c3ccnc(NC(=O)C4CC4)c3)cc2C2CCC2)no1` [Compound 88, 5-(tert-butyl)-N-(2-cyclobutyl-4-(2-(cyclopropanecarboxamido)pyridin-4-yl)benzyl)-1,2,4-oxadiazole-3-carboxamide]: the IC50 on BTK [1] was at most 1 nM.
Still for that read-out and setting: in the case of `Cc1cc(-c2ccnc(NC(=O)C3C4COCC43)c2)ccc1CNC(=O)c1noc(C(C)(C)C)n1` (stereo not drawn) [Compound 23] it was 1 to 10 nM; in that of `Cc1c([C@@H](C)NC(=O)c2nc(C(C)(C)C)no2)ccc(-c2ccnc(NC(=O)C3CC3)c2)c1F` [Compound 66, (R)-3-(tert-butyl)-N-(1-(4-(2-(cyclopropanecarboxamido)pyridin-4-yl)-3-fluoro-2-methylphenyl)ethyl)-1,2,4-oxadiazole-5-carboxamide], at most 1 nM.
As for `CC(C)(C)c1noc(C(=O)N[C@@H]2CCCCc3cc(-c4ccnc(NC(=O)[C@@H]5C[C@@H]5C#N)c4)ccc32)n1` [Compound 50, 3-(tert-butyl)-N-((R)-2-(2-((1R,2S)-2-cyanocyclopropane-1-carboxamido)pyridin-4-yl)-6,7,8,9-tetrahydro-5H-benzo[7]annulen-5-yl)-1,2,4-oxadiazole-5-carboxamide], the IC50 against BTK [1] is at most 1 nM.
On BTK [1], `CC(C)(C)c1noc(C(=O)NCc2ccc(-c3ccnc(NC(=O)C4CC4)c3)c(F)c2C(F)F)n1` [Compound 27, 3-(tert-butyl)-N-(4-(2-(cyclopropanecarboxamido)pyridin-4-yl)-2-(difluoromethyl)-3-fluorobenzyl)-1,2,4-oxadiazole-5-carboxamide] showed an IC50 of at most 1 nM.
For the compound `CC(C)(C)c1nc(C(=O)N[C@@H]2CCCCc3c2ccc(-c2ccnc(NC(=O)C4CC4)c2)c3F)no1` [Compound 40, (R)-5-(tert-butyl)-N-(2-(2-(cyclopropanecarboxamido)pyridin-4-yl)-1-fluoro-6,7,8,9-tetrahydro-5H-benzo[7]annulen-5-yl)-1,2,4-oxadiazole-3-carboxamide], the IC50 at BTK [1] was at most 1 nM.
With `Cc1cc(-c2ccnc(NC(=O)C3CC3)c2)c(F)cc1[C@@H](C)NC(=O)c1noc(C(C)(C)C)n1` [Compound 85, (R)-5-(tert-butyl)-N-(1-(4-(2-(cyclopropanecarboxamido)pyridin-4-yl)-5-fluoro-2-methylphenyl)ethyl)-1,2,4-oxadiazole-3-carboxamide], on BTK [1], the IC50 was at most 1 nM.
`CC(C)(C)c1nc(C(=O)N[C@@H]2CCCCc3cc(-c4ccnc(NC(=O)C5CC5)c4)c(F)cc32)no1` [Compound 24, (R)-5-(tert-butyl)-N-(2-(2-(cyclopropanecarboxamido)pyridin-4-yl)-3-fluoro-6,7,8,9-tetrahydro-5H-benzo[7]annulen-5-yl)-1,2,4-oxadiazole-3-carboxamide] returned an IC50 against BTK [1] of at most 1 nM.
With `COc1cc(-c2ccnc(NC(=O)C3CC3)c2)ccc1CNC(=O)c1noc(C(C)(C)C)n1` [Compound 87, 5-(tert-butyl)-N-(4-(2-(cyclopropanecarboxamido)pyridin-4-yl)-2-methoxybenzyl)-1,2,4-oxadiazole-3-carboxamide], the IC50 at BTK [1] was at most 1 nM.
Take `C[C@@H](NC(=O)c1nc(C(C)(C)C)no1)c1ccc(-c2ccnc(NC(=O)C3CC3)c2)c(F)c1Cl` [Compound 75, (R)-3-(tert-butyl)-N-(1-(2-chloro-4-(2-(cyclopropanecarboxamido)pyridin-4-yl)-3-fluorophenyl)ethyl)-1,2,4-oxadiazole-5-carboxamide]: the concentration for half-maximal inhibition (IC50) on BTK [1] was at most 1 nM.
In turn, `CC(C)(C)c1nc(C(=O)NCc2cc(F)c(-c3ccnc(NC(=O)C4CC4)c3)cc2C(F)(F)F)no1` [Compound 62, 5-(tert-butyl)-N-(4-(2-(cyclopropanecarboxamido)pyridin-4-yl)-5-fluoro-2-(trifluoromethyl)benzyl)-1,2,4-oxadiazole-3-carboxamide] gave an IC50 against BTK [2] of 500 to 10000 nM.
